Measurements from US20230339886A1 (University of Florida Research Foundation, Incorporated, priority 2020, published 2023).
Read-outs that look alike come from different tables or passages of the source.

Molecular target: T1, REV-ERBα LBD (human; residues 281-614 Δ324-422) (Homo sapiens, UniProt P20393, DEL324-422)
T1 construct: 6×Histag-REV-ERBα LBD (human; residues 281-614 Δ324-422); made in house; host or cells: Escherichia coli
Experiment: TR-FRET corepressor interaction assay (REV-ERBα LBD, FITC-SMRT peptide)
Type: biochemical
Summary of the method: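 Compound serial dilutions (in DMSO, triplicate) incubated 2 h at 4 °C; Tb donor excited at 340 nm, emission read at 495 nm and FITC acceptor at 520 nm. TR-FRET ratio (520/495 nm) plotted against ligand concentration and fitted to a sigmoidal dose-response curve.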

[1] = Table 2, read-out: REVERBα agonism (EC50 class, FRET assay)
[2] = FITC-SMRT peptide, read-out: REVERBα agonism (EC50 class, FRET assay)

T1 sequence (P20393 with tags, fused parts or gaps DEL324-422): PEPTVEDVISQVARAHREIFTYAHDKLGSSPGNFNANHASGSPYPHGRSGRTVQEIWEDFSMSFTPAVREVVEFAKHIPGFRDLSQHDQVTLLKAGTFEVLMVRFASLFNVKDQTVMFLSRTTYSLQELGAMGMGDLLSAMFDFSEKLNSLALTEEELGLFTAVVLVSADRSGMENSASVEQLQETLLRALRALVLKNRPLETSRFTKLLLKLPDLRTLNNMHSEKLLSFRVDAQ
T1 sequence (Q9Y618 2335-2356 partner limits assumed): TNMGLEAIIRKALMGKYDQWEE

Structure (SMILES) | EC50 [1] | EC50 [2]
CC(C)(C)Cn1cc(CC2(NS(=O)(=O)C3CC3)CC2)c2ccc(-c3ccccc3C(F)(F)F)cc21 [Example 406, N-(1-((1-neopentyl-6-(2-(trifluoromethyl)phenyl)-1H-indol-3-yl)methyl)cyclopropyl)cyclopropanesulfonamide] | > 3000 nM | –
CC(C)Cn1cc(C(CS(C)(=O)=O)C(F)(F)F)c2ccc(-c3ccccc3C(F)(F)F)cc21 (stereo not drawn) [Example 407, 1-isobutyl-3-(1,1,1-trifluoro-3-(methylsulfonyl)propan-2-yl)-6-(2-(trifluoromethyl)phenyl)-1H-indole] | > 3000 nM | –
Cc1ccc(-c2ccc3c(CCS(=O)(=O)C4CC4)cn(CC(C)(C)C)c3c2)c(C(F)(F)F)c1 [Example 408, 3-(2-(cyclopropylsulfonyl)ethyl)-6-(4-methyl-2-(trifluoromethyl)phenyl)-1-neopentyl-1H-indole] | < 500 nM | –
CC(C)Cn1cc([C@H](NS(=O)(=O)C2CC2)C(F)(F)F)c2ccc(-c3ccccc3C(F)(F)F)cc21 [Example 410, (S)—N-(2,2,2-trifluoro-1-(1-isobutyl-6-(2-(trifluoromethyl)phenyl)-1H-indol-3-yl)ethyl)cyclopropanesulfonamide] | < 500 nM | –
CC(C)(C)Cn1cc([C@H](NS(=O)(=O)C2CCC2)C(F)(F)F)c2ccc(-c3c(F)cccc3Cl)cc21 [Example 411, (S)—N-(1-(6-(2-chloro-6-fluorophenyl)-1-neopentyl-1H-indol-3-yl)-2,2,2-trifluoroethyl)cyclobutanesulfonamide] | < 500 nM | –
COC(C)(C)Cn1cc([C@H](NS(=O)(=O)C2CCC2)C(F)(F)F)c2ccc(-c3ccccc3C(F)(F)F)nc21 [Example 413, (S)—N-(2,2,2-trifluoro-1-(1-(2-methoxy-2-methylpropyl)-6-(2-(trifluoromethyl)phenyl)-1H-pyrrolo[2,3-b]pyridin-3-yl)ethyl)cyclobutanesulfonamide] | < 500 nM | –
N#CC1(Cn2cc([C@H](NS(=O)(=O)C3CCC3)C(F)(F)F)c3ccc(-c4ccccc4C(F)(F)F)nc32)CC1 [Example 414, (S)—N-(1-(1-((1-cyanocyclopropyl)methyl)-6-(2-(trifluoromethyl)phenyl)-1H-pyrrolo[2,3-b]pyridin-3-yl)-2,2,2-trifluoroethyl)cyclobutanesulfonamide] | < 500 nM | –
CC(C)c1ccc2c([C@H](NS(=O)(=O)C3CCC3)C(F)(F)F)cn(CC(C)(C)C)c2c1 [Example 415, (S)—N-(2,2,2-trifluoro-1-(6-isopropyl-1-neopentyl-1H-indol-3-yl)ethyl)cyclobutanesulfonamide] | 500 to 3000 nM | –
CC(C)(C)Cn1cc([C@H](NS(=O)(=O)C2CCC2)C(F)(F)F)c2ccc(C(F)(F)F)cc21 [Example 416, (S)—N-(2,2,2-trifluoro-1-(1-neopentyl-6-(trifluoromethyl)-1H-indol-3-yl)ethyl)cyclobutanesulfonamide] | > 3000 nM | –
CC(C)S(=O)(=O)NCCn1cc(CC(C)(C)C)c2cc(-c3ccc(C(F)(F)F)cc3C(F)(F)F)ccc21 [Example 417, N-(2-(5-(2,4-bis(trifluoromethyl)phenyl)-3-neopentyl-1H-indol-1-yl)ethyl)propane-2-sulfonamide] | < 500 nM | –
CC(C)(C)Cc1cn(CCNS(=O)(=O)C2CCC2)c2ccc(-c3ccc(C(F)(F)F)cc3C(F)(F)F)cc12 [Example 418, N-(2-(5-(2,4-bis(trifluoromethyl)phenyl)-3-neopentyl-1H-indol-1-yl)ethyl)cyclobutanesulfonamide] | < 500 nM | –
CC(C)(C)Cn1cc([C@H](NS(=O)(=O)C2CC(F)(F)C2)C(F)(F)F)c2ccc(-c3ccccc3C(F)(F)F)cc21 [Example 419, (S)-3,3-difluoro-N-(2,2,2-trifluoro-1-(1-neopentyl-6-(2-(trifluoromethyl)phenyl)-1H-indol-3-yl)ethyl)cyclobutane-1-sulfonamide] | 500 to 3000 nM | –
CC(NS(=O)(=O)C1CC1)c1cn(CC(C)(C)C)c2cc(-c3ccccc3C(F)(F)F)ccc12 (stereo not drawn) [Example 420, N-(1-(1-neopentyl-6-(2-(trifluoromethyl)phenyl)-1H-indol-3-yl)ethyl)-cyclopropanesulfonamide] | < 500 nM | –
O=S(=O)(N[C@@H](c1cn(CC2CCCC2)c2cc(-c3ccccc3C(F)(F)F)c(F)cc12)C(F)(F)F)C1CCC1 [Example 421, (S)—N-(1-(1-(cyclopentylmethyl)-5-fluoro-6-(2-(trifluoromethyl)phenyl)-1H-indol-3-yl)-2,2,2-trifluoroethyl)cyclobutanesulfonamide] | < 500 nM | –
O=S(=O)(N[C@@H](c1cn(CC2CCCC2)c2cc(-c3ccccc3C(F)(F)F)c(F)cc12)C(F)(F)F)C1CC1 [Example 422, (S)—N-(1-(1-(cyclopentylmethyl)-5-fluoro-6-(2-(trifluoromethyl)phenyl)-1H-indol-3-yl)-2,2,2-trifluoroethyl)cyclopropanesulfonamide] | < 500 nM | –
CC(NS(=O)(=O)C1CC1)c1cn(CC(C)(C)C)c2cc(-c3ccccc3C(F)(F)F)c(F)cc12 (stereo not drawn) [Example 423, N-(1-(5-fluoro-1-neopentyl-6-(2-(trifluoromethyl)phenyl)-1H-indol-3-yl)ethyl)cyclopropanesulfonamide] | – | < 500 nM
CC(C)(C)Cn1cc(C(NS(=O)(=O)C2CCC2)C2CC2)c2ccc(-c3ccccc3C(F)(F)F)cc21 (stereo not drawn) [Example 424, N-(cyclopropyl(1-neopentyl-6-(2-(trifluoromethyl)phenyl)-1H-indol-3-yl)methyl)cyclobutanesulfonamide] | – | < 500 nM
CCC(NS(=O)(=O)C1CCC1)c1cn(CC(C)(C)C)c2cc(-c3ccccc3C(F)(F)F)ccc12 (stereo not drawn) [Example 425, N-(1-(1-neopentyl-6-(2-(trifluoromethyl)phenyl)-1H-indol-3-yl)propyl)cyclobutanesulfonamide] | – | < 500 nM
CC(C)(C)Cn1cc([C@H](NS(=O)(=O)C2CC2(C)C)C(F)(F)F)c2ccc(-c3ccccc3C(F)(F)F)cc21 (stereo partly drawn) [Example 426, 2,2-dimethyl-N—((S)-2,2,2-trifluoro-1-(1-neopentyl-6-(2-(trifluoromethyl)phenyl)-1H-indol-3-yl)ethyl)cyclopropane-1-sulfonamide] | – | 500 to 3000 nM
CC(C)(C)Cn1cc([C@H](NS(=O)(=O)C2CCC2)C(F)(F)F)c2ccc(C3CCCC3)nc21 [Example 427, (S)—N-(1-(6-cyclopentyl-1-neopentyl-1H-pyrrolo[2,3-b]pyridin-3-yl)-2,2,2-trifluoroethyl)cyclobutanesulfonamide] | – | < 500 nM
CC(C)(C)Cn1cc([C@H](NS(=O)(=O)C2CCC2)C(F)(F)F)c2cc(F)c(C3CCCC3)cc21 [Example 428, (S)—N-(1-(6-cyclopentyl-5-fluoro-1-neopentyl-1H-indol-3-yl)-2,2,2-trifluoroethyl)cyclobutanesulfonamide] | – | < 500 nM
CC(C)(C)Cn1cc([C@H](CF)NS(=O)(=O)C2CCC2)c2ccc(-c3ccccc3C(F)(F)F)cc21 [Example 429, (R)—N-(2-fluoro-1-(1-neopentyl-6-(2-(trifluoromethyl)phenyl)-1H-indol-3-yl)ethyl)cyclobutanesulfonamide] | – | < 500 nM
CCOC(=O)[C@@H](NS(=O)(=O)C1CC1)c1cn(CC(C)(C)C)c2cc(-c3ccccc3C(F)(F)F)ccc12 [Example 430, ethyl (S)-2-(cyclopropanesulfonamido)-2-(1-neopentyl-6-(2-(trifluoromethyl)phenyl)-1H-indol-3-yl)acetate] | – | > 3000 nM
CC(C)(C)Cn1cc([C@H](NS(=O)(=O)C2CC2)C(=O)O)c2ccc(-c3ccccc3C(F)(F)F)cc21 [Example 431, (S)-2-(cyclopropanesulfonamido)-2-(1-neopentyl-6-(2-(trifluoromethyl)phenyl)-1H-indol-3-yl)acetic acid] | – | > 3000 nM
CC(C)(C)Cn1cc([C@@H](CO)NS(=O)(=O)C2CC2)c2ccc(-c3ccccc3C(F)(F)F)cc21 [Example 432, (S)—N-(2-hydroxy-1-(1-neopentyl-6-(2-(trifluoromethyl)phenyl)-1H-indol-3-yl)ethyl)cyclopropanesulfonamide] | – | < 500 nM
CC(NS(=O)(=O)C12CC(C1)C2)c1cn(CC(C)(C)C)c2cc(-c3ccccc3C(F)(F)F)ccc12 (stereo not drawn) [Example 433, N-(1-(1-neopentyl-6-(2-(trifluoromethyl)phenyl)-1H-indol-3-yl)ethyl)bicyclo[1.1.1]pentane-1-sulfonamide] | – | < 500 nM
NC(=O)c1cccc(F)c1-c1ccc2c([C@H](NS(=O)(=O)C3CCC3)C(F)(F)F)cn(C3CCOCC3)c2c1 [Example 434, (S)-2-(3-(1-(cyclobutanesulfonamido)-2,2,2-trifluoroethyl)-1-(tetrahydro-2H-pyran-4-yl)-1H-indol-6-yl)-3-fluorobenzamide] | – | > 3000 nM
CC(C)(C)Cn1cc([C@H](NS(=O)(=O)C2CCC2)C(F)F)c2cc(F)c(-c3ccccc3C(F)(F)F)cc21 [Example 435, (S)—N-(2,2-difluoro-1-(5-fluoro-1-neopentyl-6-(2-(trifluoromethyl)phenyl)-1H-indol-3-yl)ethyl)cyclobutanesulfonamide] | – | < 500 nM
CC(C)(C)Cn1cc([C@@H](CF)NS(=O)(=O)C2CCC2)c2cc(F)c(-c3ccccc3C(F)(F)F)cc21 [Example 436, (S)—N-(2-fluoro-1-(5-fluoro-1-neopentyl-6-(2-(trifluoromethyl)phenyl)-1H-indol-3-yl)ethyl)cyclobutanesulfonamide] | – | < 500 nM
CC(C)(C)Cn1cc([C@H](NS(=O)(=O)C2CC(F)C2)C(F)(F)F)c2ccc(-c3ccccc3C(F)(F)F)cc21 (stereo partly drawn) [Example 437, (S)-3-fluoro-N-(2,2,2-trifluoro-1-(1-neopentyl-6-(2-(trifluoromethyl)phenyl)-1H-indol-3-yl)ethyl)cyclobutane-1-sulfonamide] | – | 500 to 3000 nM
